According to ChEMBL document CHEMBL5537186 (J Med Chem, 2024):
In brackets after ≈: the same amount, converted by molar mass.

Legend:
[1] = Kinetic aqueous solubility of compound at pH 4.5; assay type: physicochemical; conditions: read-out: Kinetic_solubility
[2] = Lipophilicity, logD of compound at pH 7.4; assay type: physicochemical; conditions: buffer
[3] = Kinetic aqueous solubility of compound at pH 7.4; assay type: physicochemical; conditions: read-out: Kinetic_solubility
[4] = Metabolic stability in human hepatocytes assessed as compound remaining measured after 60 mins; assay type: ADME, cell-based, Hepatocyte; conditions: read-out: Stability
[5] = Dissociation constant, pKa of compound; assay type: physicochemical

| SMILES | solubility kinetic [1] [µM] | logD [2] | solubility kinetic [3] [µM] | remaining at 1 h [4] [%] | pKa [5] |
| --- | --- | --- | --- | --- | --- |
| Cc1ccc(NC(=O)N2CC[C@@H](CC(F)(F)F)C2)cc1-c1cc(OCCO)nc(N2CCOCC2)c1 | 35 (≈ 17.8 µg/mL) | 3.73 | 39 (≈ 19.8 µg/mL) | 19 |  |
| Cc1ccc(NC(=O)N2CC[C@@H](CC(F)(F)F)C2)cc1-c1cc(O[C@H](C)CO)nc(N2CCOCC2)c1 | 19 (≈ 9.93 µg/mL) | 3.99 | 17 (≈ 8.88 µg/mL) | 38 | 3.8 |
| Cc1ccc(NC(=O)N2CCO[C@H](C(F)(F)F)C2)cc1-c1cc(OCCO)nc(N2CCOCC2)c1 |  | 3.46 | 62 (≈ 31.7 µg/mL) | 93 |  |
| Cc1ccc(NC(=O)N2CC[C@@H](CC(F)(F)F)C2)cc1-c1cc(OC[C@@H](C)O)nc(N2CCOCC2)c1 | 26 (≈ 13.6 µg/mL) | 3.94 | 23 (≈ 12 µg/mL) | 23 |  |
| Cc1ccc(NC(=O)N2CC[C@@H](CC(F)(F)F)C2)cc1-c1cc(OCC(C)(C)O)nc(N2CCOCC2)c1 |  | 3.86 | 15 (≈ 8.05 µg/mL) | 62 |  |
